Calls of active or inactive are those of the source. No stated cut-off is given here; in the data, active means IC50 below about 71 µM; inactive means the rest.
Tested on: S. cerevisiae tim10 strain, luminescence counterscreen
Assay: signal inhibition in TIM10 yeast counter-screen, dose response, counter-screen for tim23-1 inhibitor project, luminescence, S. cerevisiae, uHTS hits (AID 504672);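 further: yeast grew roughly 22 hours at 25 °C before the luminescence read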

SMILES	IC50
Cc1ccccc1OCCCSc1nc2ccccc2[nH]1	6.45 µM
O=C(NCCCc1ccccc1)c1c(O)nc2sccn2c1=O	4.09 µM
N#C/C(C(N)=O)=c1/ccc2c(c1)N1C3=C(CCCC3)CC3CCCCC31N=2 (stereo not given)	8.55 µM
CC(C(Sc1ccccc1N)c1ccccc1)[N+](=O)[O-] (stereo not given)	5.26 µM
COc1ccc(C(=O)N/N=C\c2coc3ccc(Cl)cc3c2=O)cc1	32.5 µM
COc1ccc(NCc2ccc([N+](=O)[O-])s2)cc1	6.42 µM
O=C(Nc1ccc(-c2ccc(N3CCCCC3)nn2)cc1)c1ccco1	5.82 µM
Cc1ccc(-c2nnc(N3CCN(c4ccccn4)CC3)c3ccccc23)cc1	13.1 µM
N#C/C(=C/c1ccc(N2CCOCC2)o1)c1nc2ccccc2[nH]1	26.6 µM
O=C(N/N=C/c1ccc(Br)s1)c1cccs1	22.9 µM
N=c1c2c(-c3ccccc3)c(-c3ccccc3)n(Cc3ccco3)c2ncn1Cc1ccco1	14.6 µM
COc1cc(/C=C/[N+](=O)[O-])ccc1OC(=O)c1cc2ccccc2oc1=O	3.42 µM
N#C/C(=C\c1ccc(O)cc1)c1nc2ccccc2o1	17.6 µM
O=C(Nc1cccc(NC(=O)c2cccs2)c1)c1ccc(Br)o1	15 µM
O=C1c2ccccc2-c2n[nH]c3cccc1c23	20.2 µM
CCc1cccc2c(C(=O)CCl)c[nH]c12	25.1 µM
O=C1c2ccccc2C(=O)N1c1nc(-c2cccs2)cs1	6.52 µM
Cn1c(-c2sc3ccccc3c2Cl)n[nH]c1=S	5.74 µM
Clc1nssc1=Nc1nncs1	2.6 µM
COc1ccc(N2CCC(CNC(=S)Nc3ccc(C)cc3C)C2)cc1 (stereo not given)	18.1 µM
CCOC(=O)c1c(N)sc(C(=O)Nc2ccccc2)c1C	2.25 µM
CC1(C)CC(=O)C=C(c2cccc(Cl)c2O)C1	13.1 µM
O=C1NC(=S)SC1=C1CCCCCC1	14.1 µM
COC(=O)N/N=C/c1ccc(-c2cc(Cl)cc(Cl)c2)o1	18 µM
Cn1c(=O)c(C(=O)Nc2ncccn2)c(O)c2ccccc21	4.78 µM

SMILES	IC50
O=C(CSc1cccc[n+]1[O-])CSc1cccc[n+]1[O-]	6.94 µM
CSc1nnc(C(C)(C)C)c(=O)n1/N=C/c1ccccc1	56.6 µM
CC(C)(C)c1ccc(Oc2ccc(N)cc2)cc1	13.7 µM
NNC(=O)c1nc(-c2ccccc2)cc(-c2ccccc2)n1	12.5 µM
O=c1/c(=C/c2cccc3ccccc23)sc2ncnn12	16.7 µM
O=[N+]([O-])c1ccccc1S(=O)(=O)Nc1cccc2cccnc12	13.9 µM
CCCC(=O)NC(c1ccc(C(C)C)cc1)c1ccc2cccnc2c1O (stereo not given)	7.76 µM
O=C(NCc1ccc2c(c1)OCO2)c1c(O)nc2sccn2c1=O	1.63 µM
O=C(Nc1ccccc1)C1C(c2ccccc2)C1(Cl)Cl (stereo not given)	20.6 µM
Cc1ccc(S(=O)(=O)n2ccc(OC(=O)c3cccs3)n2)cc1	8.32 µM
Cc1ccc(SCC(=O)OCn2nnc3ccccc3c2=O)cc1C	15.6 µM
c1ccc(-c2ncc(-c3ccn[nH]3)s2)cc1	3.88 µM
O=C1/C(=C/c2cccs2)COc2ccccc21	7.66 µM
Oc1ccc(Br)cc1/C=N/Nc1ccccn1	5.94 µM
N#C/C(=C\c1ccc(OCc2ccccc2)cc1)C(N)=O	27.9 µM
Cc1cc(=O)oc2c1c(C(F)(F)F)nn2-c1ccccc1	6.41 µM
COc1cc(C(=O)N/N=C/c2coc3ccc(Cl)cc3c2=O)ccc1O	6.59 µM
O=C(Nc1nsc(-c2ccccc2)n1)c1cccs1	6.65 µM
O=C(c1cccnc1)C1Cc2ccccc2C1=O (stereo not given)	27.8 µM
COc1cc2c3c(c1)C(C)CC(C)(C)N3C(=O)C2=O (stereo not given)	13.8 µM
Cc1nn(CC(=O)Nc2nc3ccccc3s2)c(C)c1[N+](=O)[O-]	18.4 µM
CC(C)n1cc(NC(=O)c2cc(-c3ccccc3)on2)cn1	14.3 µM
Cc1ccc2nc(N3CCN(C=O)CC3)nc(-c3ccccc3)c2c1	9.88 µM
O=C(Nc1ccc2oc(-c3ccccc3)nc2c1)c1cccs1	< 0.2 µM
O=C(NC(=S)NC(=O)c1ccccc1F)c1ccccc1F	8.39 µM

SMILES	IC50
O=C(Nc1nc2ccccc2s1)C1CCCN1S(=O)(=O)c1ccc(Cl)cc1 (stereo not given)	49.3 µM
CC(C)Cn1cnc2c(c(-c3ccccc3)c(-c3ccccc3)n2Cc2ccco2)c1=N	42.3 µM
CCOC(=O)c1cnc(-n2nc(C)cc2C)nc1NCCc1ccccc1	8.35 µM
Fc1ccccc1-c1cc2cc3c(cc2cn1)OCO3	25 µM
CN=c1scc(-c2cccs2)n1/N=C/c1ccc(O)c(O)c1O	11 µM
COc1cc(OC)cc(C(=O)Nc2ccc(Nc3ccccc3)cc2)c1	27.3 µM
O=c1oc(Cl)c(Cl)c2ccccc12	20.1 µM
CSC1=N/C(=C\c2ccc(C)cc2)C(=O)S1	23.8 µM
C[C@@]12C(=O)Nc3ccc(Br)cc3C(=O)N1[C@H]1c3ccccc3OC[C@@H]1[C@@H]2c1ccccc1	3.81 µM
O=C(Nc1ccc(-c2cn3ccccc3n2)cc1)c1ccco1	17.5 µM
CCOC(=O)c1sc(=NC(=O)c2ccco2)n(C)c1C	46.5 µM
Cc1ccc2occ(/C=N/NC(=O)c3ccccc3Br)c(=O)c2c1	17.3 µM
O=C(Nc1ccc(-c2cn3ccccc3n2)cc1)c1cccs1	> 100 µM (inactive)
CCCCc1cc(O)c(CCCC)c(O)c1	1.21 µM
O=C(/C(=C/O)N=Nc1ccccc1)c1ccco1	11 µM
Cc1cc(C(=O)CCl)c(C)n1CCc1ccc(Cl)cc1	11 µM
COCCNC(=O)/C(C#N)=C/c1ccc(OCc2ccc(F)cc2)cc1	11.3 µM
O=C(Nc1ccc2nc(-c3ccc(Br)o3)[nH]c2c1)c1cccs1	51 µM
O=C(N/N=C/c1coc2ccc(Cl)cc2c1=O)c1cc(O)cc(O)c1	44.8 µM
CCc1ccc2oc(-c3cc(N)ccc3Cl)nc2c1	17 µM
c1ccc(Nc2nc(-c3ccccc3)nc3ccccc23)cc1	6.7 µM
O=C(Nc1ccc2c(c1)OCCO2)c1cccc(Cl)c1	21.5 µM
COC(=O)c1ccc(C(=O)OC)c(NC(=O)CSc2cccc[n+]2[O-])c1	10.6 µM
Cc1[nH][nH]c(=O)c1C(c1ccc(-c2ccc(F)cc2)o1)c1c(C)[nH][nH]c1=O	16.3 µM
O=[N+]([O-])c1cc(O)c2ncccc2c1	7.75 µM

SMILES	IC50
COc1ccc(C(C[N+](=O)[O-])c2c(-c3ccccc3)cc3ccccn23)cc1 (stereo not given)	9.28 µM
C/C=C/c1ccc(OCCOc2cc(C=O)ccc2OC)c(OC)c1	16.8 µM
COc1ccc(OC)c(-c2csc(NC(=O)Cc3ccc(F)cc3)n2)c1	27.7 µM
C/C(=N\Nc1nc2ccccc2s1)c1cccs1	17 µM
CCOC(=O)c1cccc(OC(=O)CCNC(=O)c2ccc(Cl)cc2)c1	26.9 µM
Cc1csc2nc(O)c(C(=O)NCCCc3ccccc3)c(=O)n12	8.44 µM
COc1ccc(NC(=O)Nc2nc3c(s2)CCCC3)cc1	14.5 µM
O=C(Nc1nc(-c2cccs2)c(-c2ccccc2)s1)c1ccco1	28.6 µM
c1ccc(-c2cc3ccccc3cn2)cc1	7.8 µM
Oc1ccc2ccccc2c1/C=N/c1nccs1	8.43 µM
Cc1ccc(NC(=O)c2nc(S(=O)(=O)Cc3ccccc3C)ncc2Cl)cc1C	5.94 µM
Cn1c(C(=O)Nc2ccc3c(c2)OCCO3)cc2sccc21	7.59 µM
COc1ccc(C2=NNC(c3cccs3)=Nc3ccc(OC)cc32)cc1	9.29 µM
CN1CCc2nc3sc(C(=O)C45CC6CC(CC(C6)C4)C5)c(N)c3cc2C1	86.3 µM
CCCCCCn1c(=O)c(-c2ccccc2)c(O)c2ccccc21	11.4 µM
COc1ccccc1C(=O)Nc1nnc(-c2ccc3c(c2)CCCC3)o1	14.7 µM
COc1cccc(NC(=O)c2ccccc2)c1	3.42 µM
N#C/C(=C\c1ccc(Cl)cc1)C(=O)NC1CC1	9.67 µM
O=C(Nc1ccc(C(=O)N2CCCc3ccccc32)cc1)c1cccs1	15.2 µM
O=[N+]([O-])c1ccc(N/N=C/c2cccc(O)c2)cc1	6.08 µM
O=CN(/C=C1\Sc2ccccc2C1=O)Cc1ccccc1	15.5 µM
N#Cc1c(-c2ccccc2)cc(-c2ccc(O)cc2)nc1N	9.91 µM
C=C1CCc2c([nH]c3ccc(OCC(C)C)cc23)C1=O	24.3 µM
CC(C)CCN1C(=O)c2cccc3c(N)ccc(c23)C1=O	10.6 µM
CCC(C)c1ccc(NC(=O)C2CC3CCC2C3)cc1 (stereo not given)	19.4 µM

SMILES	IC50
Cc1ccn(-c2ccc(NC(=O)c3cccs3)cc2)n1	5.12 µM
CCOC(=O)NNc1ccc2nonc2c1[N+](=O)[O-]	10.3 µM
Cc1ccc(Nc2nc(-c3cccnc3)nc3ccccc23)cc1	65.8 µM
O=C(Nc1ccc2nc(-c3ccc(Br)o3)[nH]c2c1)c1ccco1	6.75 µM
O=C(Nc1ncc([N+](=O)[O-])s1)c1ccc2c(c1)OCO2	15.8 µM
O=c1oc(-c2ccc(Br)o2)nc2ccccc12	8.59 µM
CC(C)Oc1cc(O)c2c(=O)c(-c3ccc(O)cc3)coc2c1	10.1 µM
Cc1csc2nc(O)c(C(=O)NCCC3=CCCCC3)c(=O)n12	3.43 µM
Cc1occc1C(=O)N/N=C/C(Br)=C/c1ccccc1	11.5 µM
O=C(N/N=C/C=C\c1ccco1)c1cccs1	70 µM
C[C@@]12C(=O)Nc3ccc(Cl)cc3C(=O)N1[C@H]1c3ccccc3OC[C@@H]1[C@@H]2c1ccccc1	3.46 µM
Cc1ccc(-c2nnc(N3CCC(C)CC3)c3ccccc23)cc1	11.9 µM
O=C(N/N=C/c1cc(Br)cc(Br)c1O)c1cccc(N2CCCC2=O)c1	4.11 µM
O=Cc1ccccc1OCc1ccc2c(c1)OCO2	5.65 µM
COc1ccc(C(C[N+](=O)[O-])c2c(-c3ccccc3)cc3ccccn23)cc1OC (stereo not given)	21 µM
O=Cc1cnc2ccccc2c1-c1ccccc1	9.53 µM
CN(C)/C=C1/C=C(c2ccccc2)OC1=O	36.8 µM
O=C(N/N=C/c1coc2ccc(Cl)cc2c1=O)c1ccncc1	87.1 µM
N#C/C(N)=C(/C#N)N=Cc1cccc(Cl)c1	14.2 µM
CCCN(C(=O)c1ccc([N+](=O)[O-])c(C)c1)c1c(N)n(Cc2ccccc2)c(=O)[nH]c1=O	> 100 µM (inactive)
O=C(COC(=O)CC1CCCC1)Nc1ccc(Cl)cc1	7.89 µM
N=c1c2c(-c3ccccc3)c(-c3ccccc3)n(Cc3ccco3)c2ncn1Cc1ccccc1	13.6 µM
CCN(CC)c1ccc(/C=N/NC(=O)c2ccc3c(c2)OCCO3)cc1	11.5 µM
Cc1nc2ccccc2n1/N=C/c1ccc([N+](=O)[O-])s1	2.14 µM
Cc1cnc(NC(=O)c2sc(Nc3ccccc3)nc2N)o1	28 µM
